From patent publication US6773893B1, “Human ABC1 promoter and assays based thereon” (The Trustees of Columbia University in the City of New York, priority 2000, dated 2004)
“Also recorded” adds a separate entry of the source.

Tests used:
[1] = system: hABC1 promoter; test: hABC1 promoter-luciferase reporter in RAW 264.7 cells; type: cell-based, mouse; settings: for hABC1 promoter activity compared to basal conditions: 10 μM, Firefly/Renilla luciferase ratio vs ethanol; for hABC1 promoter induction (summary statement): RAW macrophages, upstream promoter (-469 bp)
Description: In FIG. 5A a fragment of the hABC1 promoter ([…] to +101 bp) was linked to Firefly luciferase reporter gene. The resulting plasmid was cotransfected with a control reporter plasmid (Renilla luciferase) in the mouse macrophage-like RAW 264.7 cells. Four independent transfections experiments (each in triplicates) were performed. The results are expressed as a ratio between the Firefly and Renilla luciferase activities. Cells were treated with vehicle or 22(R)-Hch (10 μM), 9CRA (10 μM) and 22(R)-Hch (10 μM)+9CRA (10 μM), 24 hours in FBS medium complemented with 10% LPDS. […] Two independent experiments in triplicate were performed according to the protocol described in (a), using a shorter promoter: […] +101 pb. […] The same experiments as (a) were performed using 22(R)-Hch (10 μM), 25-Hch (10 μM), 7K-Ch (10 μM) and 9CRA (10 μM). Three to four independent experiments in duplicate or triplicate were performed. Mann Whitney tests were mean to analyze the difference between “Ethanol” and “Treatment”. In these Figures, ***=P<0.001,*=P<0.05.
(§1) The cell lines were purchased from ATCC (Rockville, Md., USA). The murine RAW 264.7, African green monkey CV-1, and human 293 or HepG2 cell lines were maintained in Dulbecco's modified Eagle's medium (DMEM) with 10% Fetal Bovine Serum (FBS), 100 U/ml penicillin and […] streptomycin. THP-1 cells were maintained in RPMI-1640 containing L-glutamine, 10% heat inactivated FBS, 100 U/ml penicillin and […] streptomycin supplemented with 0.5 mM B-mercaptoethanol. Confluent cells were differentiated with 0.2 mM phorbol 12-myristate 13-acetate (Sigma Chemical Co., St Louis, Mo., USA) in ethanol during 72 hours. Thioglycollate-elicited peritoneal macrophages were isolated from C57 Bl/6 mice as described (31).
(§2) Transfections were performed in 24-wells plates with Lipofectamine reagent (transactivation experiments in CV-1 and 293 cells, FIG. 6-7) or Lipofectamine-Plus reagent (Basal activation experiments in RAW 264.7, FIG. 5) according to the manufacturer's instructions (Life Technologies, Grand Island, N.Y., USA). For basal activation experiments a total of […] of reporter DNA and 0.05 mg of PRL-CMV(Renilla) (Promega Corp., Madison, Wis., USA) per well were used. For transactivation studies we used, per well, 0.025 mg of PRL-CMV, 0.2 mg of reporter DNA and 0.1 mg of each receptors (CMX-hRXRα, CMX-hLXRα, CMV-mLXRβ) or 0.2 mg of pcDNA3. The transfected cells were cultured in lipoprotein deficient serum (LPDS) medium in the presence of […] of 22(R)-hydroxycholesterol (22(R)-HCh), 25-hydroxycholesterol (25-HCh) or 7-ketocholesterol (7-KCh), […] 9-cis retinoic acid (9CRA) (Sigma Chemical Co., St Louis, Mo., USA) or ethanol alone for 24 hours. The luciferase activities were measured using Promega Dual Luciferase assay system. Reporter plasmid used to analyse the activity of hABC1 promoter was constructed by subcloning a 1029 bp PCR fragment of hABC1 promoter (−928 bp +101 bp) into pGL3-Luc basic vector (Promega). […] A shorter promoter (−469 bp to +101 bp) was generated by digestion of this plasmid with Sac1. Where shown, error bars represent the standard deviation.

[2] = system: hABC1 promoter; test: hABC1 promoter (-469 bp +101 bp) luciferase reporter in 293 cells with or without LXR/RXR; type: cell-based, human; settings: for upregulation of the hABC1 promoter: 293 cells without transfected LXR/hRXR, 10 μM, 24 h
Description: as §1, §2

[3] = system: LXR/hRXRα binding site of the CETP promoter; test: Luciferase reporter with 3 copies of the LXR responsive element of the CETP promoter in 293 cells; type: cell-based, human; settings: for increase in luciferase activity: absence of transfected receptors
Description: as §2

[4] = system: hABC1 mRNA in THP-1 macrophages; test: Northern blot of ABC1 mRNA in THP-1 macrophages; type: cell-based, human; design: dose or concentration left out as unconfirmed; settings: 24 h, vs ethanol
Description: as §1

[5] = system: LXR; settings: from cited references; cited from earlier work
[6] = target: SF1 (Homo sapiens, UniProt Q13285); settings: from cited references; cited from earlier work
SF1, sequence (Q13285 whole entry): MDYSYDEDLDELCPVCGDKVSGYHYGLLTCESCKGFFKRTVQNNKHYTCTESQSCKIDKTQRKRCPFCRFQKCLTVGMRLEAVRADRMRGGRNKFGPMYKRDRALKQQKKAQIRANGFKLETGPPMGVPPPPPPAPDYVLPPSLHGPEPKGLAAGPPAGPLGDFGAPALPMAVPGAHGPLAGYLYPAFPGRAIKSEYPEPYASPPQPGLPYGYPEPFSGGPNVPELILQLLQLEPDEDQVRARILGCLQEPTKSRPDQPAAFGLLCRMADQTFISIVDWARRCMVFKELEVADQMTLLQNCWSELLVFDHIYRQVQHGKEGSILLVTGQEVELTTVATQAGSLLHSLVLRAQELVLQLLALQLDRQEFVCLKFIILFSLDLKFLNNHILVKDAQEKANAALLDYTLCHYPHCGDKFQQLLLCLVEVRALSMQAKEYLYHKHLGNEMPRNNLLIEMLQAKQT

[7] = system: hABC1 promoter; test: Transactivation of the hABC1 promoter by LXR/RXR in CV-1 cells; type: cell-based, human
Description: as §2, with “The cell lines were purchased from ATCC (Rockville, Md., USA). The murine RAW 264.7, African green monkey CV-1, and human 293 or HepG2 cell lines were maintained in Dulbecco's modified Eagle's medium (DMEM) with 10% Fetal Bovine Serum (FBS), 100 U/ml penicillin and […] streptomycin. THP-1 cells were maintained in RPMI-1640 containing L-glutamine, 10% heat inactivated FBS, 100 U/ml penicillin and […] streptomycin supplemented with 0.5 mM B-mercaptoethanol. Confluent cells were differentiated with 0.2 mM phorbol 12-myristate 13-acetate (Sigma Chemical Co., St Louis, Mo., USA) in ethanol during 72 hours. Thioglycollate-elicited peritoneal macrophages were isolated from C57 Bl/6 mice as described (31). Transfections” for “Transfections”

CC(C)CCC[C@@H](C)[C@H]1CC[C@H]2[C@@H]3C(=O)C=C4C[C@@H](O)CC[C@]4(C)[C@H]3CC[C@]12C [7-KCh, 7-ketocholesterol]
hABC1 promoter activity compared to basal conditions ([1]; RAW 264.7 cells, 24 h): No significant effect; also recorded: poor activator
hABC1 promoter activity compared to 9CRA alone ([1]; RAW 264.7 cells, sterol in combination with 9CRA (10 μM each), 24 h): 2 fold

CC1=C(/C=C/C(C)=C\C=C\C(C)=C\C(=O)O)C(C)(C)CCC1 [9CRA, 9-cis retinoic acid]
effect on hABC1 promoter activity with transfected receptors ([2]; 293 cells transfected with LXRα/hRXRα): no additional effect
upregulation of the hABC1 promoter [2]: 3.5 fold
hABC1 promoter activity compared to basal conditions ([1]; RAW 264.7 cells, 24 h): 8 fold
hABC1 promoter induction (summary statement) [1]: 8 fold
activity compared to non-transfected cells ([3]; LXR transfected): no further increase in activity

9-cis retinoic acid [9CRA]
ABC1 mRNA induction [4]: 2 fold
increase in luciferase activity [3]: 24 fold

C[C@@H](CO)CCC[C@@H](C)[C@H]1CC[C@H]2[C@@H]3CC=C4C[C@@H](O)CC[C@]4(C)[C@H]3CC[C@]12C [27-HCh]
activator of LXR / LXR-RXR [5]: relatively poor activator

C[C@H](CCCC(C)(C)O)[C@H]1CC[C@H]2[C@@H]3CC=C4C[C@@H](O)CC[C@]4(C)[C@H]3CC[C@]12C [25-HCh, 25-hydroxycholesterol]
hABC1 promoter activity compared to basal conditions ([1]; RAW 264.7 cells, 24 h): 1.5 fold
activator of SF1 [6]: good activator
activator of LXR / LXR-RXR [5]: poor activator

CC(C)CC[C@@H](O)[C@@H](C)[C@H]1CC[C@H]2[C@@H]3CC=C4C[C@@H](O)CC[C@]4(C)[C@H]3CC[C@]12C [22(R)-HCh, 22(R)-hydroxycholesterol]
upregulation of the hABC1 promoter [2]: 4.5 fold
ABC1 mRNA induction [4]: 2 fold
hABC1 promoter activity compared to basal conditions ([1]; RAW 264.7 cells, 24 h): 7 fold
hABC1 promoter induction (summary statement) [1]: 7 fold
increase in luciferase activity [3]: 14 fold
transactivation of the hABC1 promoter compared to the control with no receptor ([7]; CV-1 cells cotransfected with hRXRα/LXRα): 6 fold
transactivation of the hABC1 promoter compared to the control with no receptor ([7]; CV-1 cells cotransfected with hRXRα/LXRβ): 8 fold
activation of the hABC1 promoter ([7]; CV-1 cells without transfected receptors): 4 fold
activator of SF1 [6]: poor activator
activator of LXR / LXR-RXR [5]: good activator
